Results taken from patent US10105384B2, “Nucleic acids targeting TCTP for use in the treatment of chemo- or hormone-resistant cancers” (INSTITUT NATIONAL DE LA SANTE ET DE LA RECHERCHE MEDICALE …, priority 2010, dated 2018).
d = 2'-deoxy (DNA); r = 2'-OH (RNA)

Columns and labels:
PC-3 cells = assay: MTT cell growth assay, PC-3 cells; format: cell-based, human; conditions: for enhancement of docetaxel sensitivity: PC-3 cells, 50 nM docetaxel 24 h, MTT
Description: (§1) In brief, cells were seeded in each well of 12-well microtiter plates (30 000 to 50 000 cells per well) and allowed to attach overnight. To study the effect of TCTP downregulation on apoptosis induced by docetaxel, PC-3 cells were transiently transfected the day after seeding with 5 nM of TCTP siRNA for 48 h or 100 nM of TCTP ASO for 72 h. Cells were then treated with 50 nM of docetaxel and MTT assays were performed after 24 h. To assess the effect of TCTP downregulation on Hsp27 cytoprotection, LNCaP-Mock and -Hsp27 cells were transiently transfected the day after seeding with 5 nM of TCTP siRNA for 48 h. The down- or upregulation of TCTP effect on LNCaP and C4-2 cell viability was realized after transient transfections with 100 nM of TCTP ASO or 0.02 μg/μl of pDEST-TCTP for 72 h and 48 h respectively. Cells were then treated with 1 nM of docetaxel in serum-free media (mimics androgen withdrawal in vitro) and crystal violet assays were performed the day after. Each assay was performed in triplicate.
To assess the effect of TCTP down-regulation on CR cell growth, PC-3 cells were treated for 1 day with 5 nM TCTP siRNA or for 2 days with 100 nM TCTP ASO. At the end of the treatment, PC-3 cells were incubated with 50 nM of docetaxel. Growth rates of PC-3 cells were examined using the 3-(4,5-dimethylthiazol-2-yl)-2,5-diphenyltetrazolium bromide assay. […] The effect of the inhibition of TCTP on cell survival was analyzed in PC-3 after combined ASO and docetaxel-chemotherapy treatment. After 24 h of treatment with 50 nM of docetaxel, cell viability was determined using a MTT assay. The experiment was repeated in triplicate. *** differs from PC-3 transfected with control-siRNA (P50.001) using Statview software. […] The same effect has been observed with TCTP siRNA (SEQ ID NO: 3) and 5′-[…]-3′ (SEQ ID NO: 14) and 5′-[…]-3′ (SEQ ID NO: 15) ASOs.
PC3 cells were transfected with a TCTP siRNA of SEQ ID NO: 3. Cell proliferation and apoptosis were studied using respectively MTT (3-(4,5-dimethylthiazol-2-yl)-2,5-diphenyl tetrazolium bromure) assay and flow cytometry.
PC3 cells were transfected with a TCTP ASO of SEQ ID NO: 2. Cell proliferation and apoptosis were studied using respectively MTT assay and flow cytometry.

LNCaP tumors = assay: LNCaP tumor growth in vivo after castration in athymic nude mice
Description: (§2) Approximately 3.10^6 PC-3 cells and 10.10^6 LNCaP cells were inoculated subcutaneously with 0.1 mL of Dulbecco's Modified Eagle's Medium (Invitrogen) supplemented with 10% FCS for PC-3 or with 0.1 mL of Matrigel (BD Biosciences Discovery Labware) for LNCaP in the flank region of 4-week-old male athymic nude mice (Charles River, L'Arbresle, France) via a 23-gauge needle. When PC-3 tumors reached 50 mm^3, usually 3 to 4 weeks after injection, mice were randomly selected for treatment with TCTP ASO alone, scrambled ASO alone, TCTP ASO plus docetaxel or scrambled ASO plus docetaxel. Mice bearing LNCaP tumors between 200 and 300 mm^3 in volume were castrated via scrotal approach and randomly assigned to a treatment arm. Mice were treated beginning 1 week after castration with TCTP ASO or control ASO alone and serum PSA measurements were done weekly. For both experiments, each experimental group consisted in 10 mice and the tumor volume measurements were performed once weekly and calculated by the formula length×width×depth×0.5236 (Gleave et al., 1999, Clin Cancer Res 5:2891-8). After randomization, 10 mg/kg TCTP or scrambled ASO was injected intraperitoneally (i.p) once daily for 60 days for ASO monotherapy groups and 90 days for the ASO plus docetaxel groups. A total of 35 mg/kg docetaxel was administrated i.p. three times per week from days 7 to 14. Tumor volume measurements were performed once weekly and calculated by the formula length×width×depth×0.5236 (20). Data points were expressed as average tumor volume levels +/−standard error (SE). All animal procedures were performed in accordance with protocols approved by French laws and the European directives and with appropriate institutional certification.
Twenty male mice bearing LNCaP tumors were castrated 6 to 8 weeks after tumor implantation and were randomly selected for treatment with TCTP ASO of SEQ ID NO: 2 versus control ASO. Castration was done when tumors reached a mean of 200 mm3. Mean tumor volume and PSA were similar in both groups at the beginning of the treatment. Beginning 1 week after castration, 10 mg/kg of ASO was administered once daily by i.p. injection for 9 weeks. […] At sacrifice, tumor volume was 4-fold higher in control (1650, 15±281, 76 mm^3) compared with the TCTP ASO-treated group (397, 79±132, 61 mm^3; *, P≤0.05).

PC-3 tumors = assay: PC-3 tumor growth in vivo in athymic nude mice
Description: as §2
We next evaluated the effects of TCTP ASO treatment on the growth of PC-3 tumors in vivo (FIG. 8). Male nude mice bearing PC-3 tumors (50 mm^3) were randomly selected for TCTP ASO versus scrambled ASO and 10 mg/kg ASO were administrated once daily by i.p. injection for […]. From days 7 to 14, 30 mg/kg of docetaxel was administrated i.p. 3 days in the week. Mean tumor volume was similar in all groups before therapy.
TCTP inhibition was evaluated in nude mice xenografted with the PC3 CRPC cell line. The animals were treated in an everyday basis and for a period of two months by peritoneal injection of ASO or control TCTP once their tumor volume was 200-300 mm^3. In order to evaluate the additive anticancer activity of ASO TCTP, mice were treated with docetaxel (33 mg/kg) by peritoneal injection three times per week for one week prior to ASO or control TCTP injections. For all experiments, the average tumor volume was measured once a week.

C4-2 cells = assay: Crystal violet cell growth assay, C4-2 cells; format: cell-based, human
Description: as §1
(§3) Finally, in order to assess if TCTP ASO has the same effect on prostatic cancer cell lines expressing the androgen receptor (AR), crystal violet dye was used to examin LNCaP and C4-2 cell growth. LNCaP and C4-2 were treated with 100 nM TCTP or control ASO (FIGS. 15 A and B) for 2 days. Then, LNCaP and C4-2 cells were incubated with 1 nM of docetaxel in serum-free media.

LNCaP cells = assay: Crystal violet cell growth assay, LNCaP cells; format: cell-based, human
Description: as §1, §3

Substance	reduction in PC-3 cell growth (PC-3 cells; 5 nM siRNA alone, 4 days after treatment, compared to scrambled control) [%]	enhancement of docetaxel sensitivity (PC-3 cells)	decrease of proliferation of PC3 cells (PC-3 cells; TCTP siRNA, MTT assay (summary, FIG. 12)) [%]	LNCaP tumor volume increase compared with control ASO (LNCaP tumors; 9 weeks after castration)	harvested tumors smaller in appearance (LNCaP tumors; after 9 weeks of TCTP ASO monotherapy)	tumor volume in control compared with the TCTP ASO-treated group (LNCaP tumors; at sacrifice) [fold]	side effects (animal behavior, body weight) (LNCaP tumors; castrated mice bearing LNCaP tumors, 9 weeks)	decrease of proliferation of PC3 cells (PC-3 cells; TCTP ASO, MTT assay (summary, FIG. 13)) [%]	tumor volume (PC-3 tumors; PC3 xenografted nude mice, 10th week of treatment) [mm^3]	tumor volume maintained (PC-3 tumors; PC3 xenografted nude mice, docetaxel (33 mg/kg) followed by ASO TCTP) [mm^3]	reduction of mean PC-3 tumor volume (PC-3 tumors; TCTP ASO plus docetaxel vs scrambled control, 13 weeks after initiation of treatment) [%]	harvested tumors smaller in appearance (PC-3 tumors; after two weeks of i.p. treatment) [%]	general toxicity (animal behavior, body weight) (PC-3 tumors; mice bearing PC-3 tumors, body weight t0 vs tf)	reduction of PC-3 tumor volume (PC-3 tumors; monotherapy 10 mg/kg i.p. once daily, days 56 to 70, vs scrambled control) [%]	cleaved caspase-3 fragments in harvested PC-3 tumors (PC-3 tumors; western blotting, i.p. delivery)	C4-2 cell growth (C4-2 cells; 100 nM ASO for 2 days)	sensitivity to docetaxel and androgen withdrawal (C4-2 cells; C4-2, 100 nM ASO 2 days then 1 nM docetaxel in serum-free media)	LNCaP cell growth (LNCaP cells; 100 nM ASO for 2 days)	sensitivity to docetaxel and androgen withdrawal (LNCaP cells; LNCaP, 100 nM ASO 2 days then 1 nM docetaxel in serum-free media)
5′-AACCCGUCCGCGAUCUCCCdGdG-3′ (AACCCGUCCGCGAUCUCCCGG; siRNA; sugars from the 5' end r19 d2, backbone not given here) [TCTP siRNA, from Qiagen]	55	same effect	48.1																
5′-ACCAATGAGCGAGTCATCAA-3′ (phosphorothioate backbone, further chemistry not given here) [ASO10]		up to 25%		increased more slowly	¾	4	No side effects	58	500	100	< 70	50	did not cause general toxicity	50	presence of cleaved caspase-3 fragments	considerably decrease	enhance treatments (docetaxel and androgen withdrawal) sensitivity	considerably decrease	enhance treatments (docetaxel and androgen withdrawal) sensitivity
